What was measured:
Type in all cases: biochemical
[1] = target: JAK3 (Homo sapiens (Human), UniProt P52333); assay: In vitro JAK kinase enzymatic assay (JAK3)
Method: (§1) The JAK3 kinase is recombinant human protein (catalytic domain, amino acids 781-1124 with GST-tag), expressed in insect cells (Invitrogen Catalog PV3855). The substrate is poly-glutamic acid-tyrosin peptide, Poly-(GT) (4:1) (Sigma-Aldrich, catalog P7244). [γ-^33P]-ATP is purchased from Perkin Elmer (catalog NEG602H001MC) (EasyTides). Kinase reaction buffer is 100 mM HEPES (pH 7.5), 20 mM MgCl2, 2 mM EGTA, 0.02% Brij 35. The JAK1 (Invitrogen Catalog PV4774), JAK2 (Invitrogen Catalog PV4210) and TYK2 Invitrogen Catalog PV4790) enzymatic assays are performed in the similar way. JAK1 and JAK2 substrate is Poly-(GT) (4:1), but TYK2 substrate is peptide with sequences of […]. The reaction is carried for 2 hours at room temperature. After the reactions are finished or stopped, portion or all the reaction mixtures are transferred onto filter paper P81 Phosphocellulose paper (Whatman catalog 3698-915) for binding the final radioisotope labeled products. The unreacted phosphate are washed away without interfering with the detection of real phosphorylated products. The final product can be detected by instruments such as scintillation counter, top counter or phosphoimager. The enzymatic assays can also performed in assays described those described in the art [e.g., Ma H et al, Expert Opin. Drug Discov. 3, 607-621 (2008); Olive D M, Expert Rev Proteomics, 1, 327-341 (2004)].
(§2) Signal=Bottom+(Top−Bottom)/(1+10^((Log(IC50)−Log [I])*Hill Slope) Bottom and Top refer to the post and pre-transition baselines, respectively.

[2] = target: JAK2 (Homo sapiens, UniProt O60674); assay: In vitro JAK kinase enzymatic assay (JAK2)
Method: as §1, with “The” for “The JAK3 kinase is recombinant human protein (catalytic domain, amino acids 781-1124 with GST-tag), expressed in insect cells (Invitrogen Catalog PV3855). The”, “After the reactions are finished or stopped, portion or all the reaction mixtures are transferred onto filter paper P81 Phosphocellulose paper (Whatman catalog 3698-915) for binding the final radioisotope labeled products.” left out, “Discov.” for “Discov. 3, 607-621 (2008); Olive D M, Expert Rev Proteomics, 1, 327-341 (2004)].”
as §2

[3] = target: JAK1 (Homo sapiens, UniProt P23458); assay: In vitro JAK kinase enzymatic assay (JAK1)
Method: as §1, §2

[4] = target: TYK2 (Homo sapiens (Human), UniProt P29597); assay: In vitro JAK kinase enzymatic assay (TYK2)
Method: as §1, §2

[5] = target: JAK2; assay: In vitro JAK kinase enzymatic assay (JAK2)
Method: as §1, with “The” for “The JAK3 kinase is recombinant human protein (catalytic domain, amino acids 781-1124 with GST-tag), expressed in insect cells (Invitrogen Catalog PV3855). The”, “After the reactions are finished or stopped, portion or all the reaction mixtures are transferred onto filter paper P81 Phosphocellulose paper (Whatman catalog 3698-915) for binding the final radioisotope labeled products.” left out, “Discov.” for “Discov. 3, 607-621 (2008); Olive D M, Expert Rev Proteomics, 1, 327-341 (2004)].”
as §2

Sequence of JAK2 (Homo sapiens, UniProt O60674) (O60674 whole entry, looked up, the tested form may be a part): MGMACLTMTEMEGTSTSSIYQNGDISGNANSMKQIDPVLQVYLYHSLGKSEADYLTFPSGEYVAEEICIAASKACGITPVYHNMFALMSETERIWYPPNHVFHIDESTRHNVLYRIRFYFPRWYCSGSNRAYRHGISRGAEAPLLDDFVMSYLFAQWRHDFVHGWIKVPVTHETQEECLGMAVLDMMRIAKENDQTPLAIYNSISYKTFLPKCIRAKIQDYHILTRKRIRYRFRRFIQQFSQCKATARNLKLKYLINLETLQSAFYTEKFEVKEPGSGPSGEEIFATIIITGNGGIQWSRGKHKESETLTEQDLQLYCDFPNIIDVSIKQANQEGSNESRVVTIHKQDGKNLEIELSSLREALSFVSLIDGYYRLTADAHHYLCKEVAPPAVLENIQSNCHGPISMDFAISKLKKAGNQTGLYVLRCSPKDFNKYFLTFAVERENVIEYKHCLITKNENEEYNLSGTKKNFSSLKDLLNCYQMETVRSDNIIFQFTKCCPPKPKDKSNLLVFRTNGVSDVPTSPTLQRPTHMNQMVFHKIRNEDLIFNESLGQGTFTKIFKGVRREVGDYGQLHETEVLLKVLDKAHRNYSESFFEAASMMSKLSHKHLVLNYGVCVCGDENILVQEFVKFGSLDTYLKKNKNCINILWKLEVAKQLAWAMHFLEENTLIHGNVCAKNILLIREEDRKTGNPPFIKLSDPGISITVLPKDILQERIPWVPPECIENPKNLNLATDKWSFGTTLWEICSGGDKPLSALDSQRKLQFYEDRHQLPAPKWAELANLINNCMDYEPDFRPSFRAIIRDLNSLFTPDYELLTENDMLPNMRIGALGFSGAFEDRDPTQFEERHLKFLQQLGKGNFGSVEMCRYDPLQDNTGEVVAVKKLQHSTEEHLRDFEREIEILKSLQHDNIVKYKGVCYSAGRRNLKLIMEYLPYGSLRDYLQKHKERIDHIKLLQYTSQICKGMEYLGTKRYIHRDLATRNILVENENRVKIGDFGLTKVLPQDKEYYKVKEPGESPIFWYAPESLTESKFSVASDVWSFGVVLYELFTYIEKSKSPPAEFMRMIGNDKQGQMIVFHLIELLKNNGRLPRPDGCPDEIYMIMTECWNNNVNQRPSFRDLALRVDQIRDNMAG
Sequence of JAK3 (P52333 781-1124): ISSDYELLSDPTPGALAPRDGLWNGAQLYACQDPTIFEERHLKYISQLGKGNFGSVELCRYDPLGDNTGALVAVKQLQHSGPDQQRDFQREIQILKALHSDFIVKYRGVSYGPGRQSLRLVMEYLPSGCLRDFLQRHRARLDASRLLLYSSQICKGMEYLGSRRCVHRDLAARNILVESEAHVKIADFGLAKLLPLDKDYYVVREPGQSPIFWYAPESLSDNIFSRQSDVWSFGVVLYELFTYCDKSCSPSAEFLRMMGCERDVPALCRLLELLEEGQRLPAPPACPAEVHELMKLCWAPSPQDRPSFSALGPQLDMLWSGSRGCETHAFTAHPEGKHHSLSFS
Sequence of TYK2 (P29597 whole entry): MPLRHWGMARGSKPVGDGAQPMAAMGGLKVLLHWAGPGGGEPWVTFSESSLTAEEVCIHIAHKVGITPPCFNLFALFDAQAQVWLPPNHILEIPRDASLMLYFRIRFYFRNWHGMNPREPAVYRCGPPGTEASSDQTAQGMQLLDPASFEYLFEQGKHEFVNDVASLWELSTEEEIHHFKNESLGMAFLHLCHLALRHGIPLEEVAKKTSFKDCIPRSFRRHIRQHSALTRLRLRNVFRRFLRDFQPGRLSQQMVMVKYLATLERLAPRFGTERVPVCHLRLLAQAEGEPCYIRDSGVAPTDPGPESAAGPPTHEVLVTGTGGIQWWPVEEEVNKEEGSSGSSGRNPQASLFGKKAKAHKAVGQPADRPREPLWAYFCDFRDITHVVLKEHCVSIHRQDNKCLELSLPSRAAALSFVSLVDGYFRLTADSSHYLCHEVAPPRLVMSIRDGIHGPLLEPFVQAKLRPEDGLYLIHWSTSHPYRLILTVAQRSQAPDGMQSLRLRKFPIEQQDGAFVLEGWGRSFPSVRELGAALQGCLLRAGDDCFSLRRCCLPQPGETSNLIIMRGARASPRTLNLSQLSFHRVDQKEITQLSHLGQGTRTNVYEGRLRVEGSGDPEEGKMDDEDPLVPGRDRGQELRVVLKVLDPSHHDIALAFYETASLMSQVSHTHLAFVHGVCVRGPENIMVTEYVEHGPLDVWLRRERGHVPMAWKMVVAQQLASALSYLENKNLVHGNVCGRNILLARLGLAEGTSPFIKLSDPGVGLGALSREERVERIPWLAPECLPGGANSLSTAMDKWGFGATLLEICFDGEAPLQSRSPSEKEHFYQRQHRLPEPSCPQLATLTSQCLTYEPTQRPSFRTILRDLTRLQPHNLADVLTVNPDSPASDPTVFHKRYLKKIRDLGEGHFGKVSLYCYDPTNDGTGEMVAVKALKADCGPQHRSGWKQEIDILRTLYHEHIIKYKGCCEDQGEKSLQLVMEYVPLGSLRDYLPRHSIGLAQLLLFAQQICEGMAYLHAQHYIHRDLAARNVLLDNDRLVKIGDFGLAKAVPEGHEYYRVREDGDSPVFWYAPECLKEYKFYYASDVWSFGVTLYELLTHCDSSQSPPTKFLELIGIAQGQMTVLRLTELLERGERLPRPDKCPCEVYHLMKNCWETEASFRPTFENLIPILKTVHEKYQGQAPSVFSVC

Row | Compound | IC50 [1] | IC50 [2] | IC50 [3] | IC50 [4] | IC50 [5]
1 | 2-[4-(4-chlorophenyl)piperazin-1-yl]-N-(3-(quinoxalin-2-yl)phenyl)acetamide [Example 4] | 2.7 µM | > 20 µM | > 20 µM | > 20 µM | 
2 | O=C(Cn1cncn1)Nc1cccc(-c2cnc3ccccc3n2)c1 [Example 7, N-[3-(quinoxalin-2-yl)phenyl]-2-(1H-1,2,4-triazol-1-yl)acetamide] | > 50 µM |  | > 50 µM | > 50 µM | > 50 µM
3 | CN1CCN(CC(=O)Nc2cccc(-c3cnc4ccccc4n3)c2)CC1 [Example 17, 2-(4-methylpiperazin-1-yl)-N-[3-(quinoxalin-2-yl)phenyl]acetamide] | > 50 µM |  | > 50 µM | > 50 µM | > 50 µM
4 | O=S(=O)(Nc1cccc(-c2cnc3ccccc3n2)c1)c1cccs1 [Example 13, N-[3-(quinoxalin-2-yl)phenyl]thiophene-2-sulfonamide] | > 50 µM | 55.5 µM | > 50 µM | > 50 µM | 
5 | 1-methyl-3-[3-(quinoxalin-2-yl)phenyl]thiourea [Example 11] | > 50 µM | 25.5 µM | > 50 µM | > 50 µM | 
6 | CN(C)CC(=O)Nc1cccc(-c2cnc3ccccc3n2)c1 [Example 2, N^2,N^2-dimethyl-N^1-(3-quinoxalin-2-ylphenyl)glycinamide] | > 50 µM |  | > 50 µM | > 50 µM | > 50 µM
7 | C=CC(=O)Nc1cccc(-c2cnc3ccccc3n2)c1 [Example 22, N-(3-(quinoxalin-2-yl)phenyl)acrylamide] | 0.045 µM | > 10 µM | > 10 µM | > 10 µM | 
8 | CC(Cl)C(=O)Nc1cccc(-c2cnc3ccccc3n2)c1 (centres unmarked) [Example 21, 2-chloro-N-(3-(quinoxalin-2-yl)phenyl)propanamide] | 0.33 µM | > 50 µM | > 50 µM | > 50 µM | 
9 | CCC(=O)Nc1cccc(-c2cnc3ccccc3n2)c1 [Example 6, N-[3-(quinoxalin-2-yl)phenyl]propionamide] | > 50 µM | > 50 µM | > 50 µM | > 50 µM | 
10 | O=C(CN1CCCC1)Nc1cccc(-c2cnc3ccccc3n2)c1 [Example 3, 2-pyrrolidin-1-yl-N-(3-quinoxalin-2-ylphenyl)acetamide] | > 20 µM |  | > 20 µM | > 20 µM | > 20 µM
11 | O=C(CN1CCOCC1)Nc1cccc(-c2cnc3ccccc3n2)c1 [Example 20, 2-morpholino-N-(3-(quinoxalin-2-yl)phenyl)acetamide] | 34 µM |  | > 50 µM | > 50 µM | > 50 µM
12 | O=C(Nc1cccc(-c2cnc3ccccc3n2)c1)C(Cl)Cl [Example 18, 2,2-dichloro-N-[3-(quinoxalin-2-yl)phenyl]acetamide] | 0.5 µM | > 10 µM | > 10 µM | > 10 µM | 
13 | O=C(Nc1cccc(-c2cnc3ccccc3n2)c1)c1ccco1 [Example 12, N-[3-(quinoxalin-2-yl)phenyl]furan-2-carboxamide] | > 50 µM |  | > 50 µM | > 50 µM | 24.6 µM
14 | COc1ccc(NC(=O)Nc2cccc(-c3cnc4ccccc4n3)c2)cc1 [Example 10, 1-(4-methoxyphenyl)-3-[3-(quinoxalin-2-yl)phenyl]urea] | > 50 µM |  | > 50 µM | > 50 µM | > 50 µM
15 | CS(=O)(=O)Nc1cccc(-c2cnc3ccccc3n2)c1 [Example 15, N-[3-(quinoxalin-2-yl)phenyl]methanesulfonamide] | > 50 µM |  | > 50 µM | > 50 µM | 18.5 µM
16 | O=C(CCCCl)Nc1cccc(-c2cnc3ccccc3n2)c1 [Example 5, 4-chloro-N-[3-(quinoxalin-2-yl)phenyl]butanamide] | > 50 µM |  | > 50 µM | > 50 µM | > 50 µM
17 | O=C(CCCl)Nc1cccc(-c2cnc3ccccc3n2)c1 [Example 19, 3-chloro-N-[3-(quinoxalin-2-yl)phenyl]propanamide] | > 50 µM | > 50 µM | > 50 µM | > 50 µM | 
18 | N-[3-(quinoxalin-2-yl)phenyl]cyclopropanecarboxamide [Example 14] | > 50 µM |  | > 50 µM | > 50 µM | 

Results, then the compound that gave them:

Row | IC50 [1] | IC50 [2] | IC50 [3] | IC50 [4] | IC50 [5] | Compound
19 | 150 µM |  | > 10 µM | > 10 µM | > 10 µM | CC(=O)OCC(=O)Nc1cccc(-c2cnc3ccccc3n2)c1 [Example 28, 2-oxo-2-(3-(quinoxalin-2-yl)phenylamino)ethyl acetate]
20 | > 10 µM |  | > 10 µM | > 10 µM | > 10 µM | CCOC(=O)CC(=O)Nc1cccc(-c2cnc3ccccc3n2)c1 [Example 32, ethyl 3-oxo-3-(3-(quinoxalin-2-yl)phenylamino)propanoate]
21 | > 10 µM |  | > 10 µM | > 10 µM | > 10 µM | CSCC(=O)Nc1cccc(-c2cnc3ccccc3n2)c1 [Example 25, 2-(methylthio)-N-(3-(quinoxalin-2-yl)phenyl)acetamide]
22 | 13 µM |  | > 20 µM | > 20 µM | > 20 µM | O=C(CN1CCNCC1)Nc1cccc(-c2cnc3ccccc3n2)c1 [Example 35, 2-(piperazin-1-yl)-N-(3-(quinoxalin-2-yl)phenyl)acetamide]
23 | > 10 µM |  | > 10 µM | > 10 µM | > 10 µM | NS(=O)(=O)CCC(=O)Nc1cccc(-c2cnc3ccccc3n2)c1 [Example 36, 3-(aminosulfonyl)-N-[3-(2-quinoxalinyl)phenyl]propanamide]
24 | > 10 µM |  | > 10 µM | > 10 µM | > 10 µM | O=C(CN1CCN(c2ccncc2)CC1)Nc1cccc(-c2cnc3ccccc3n2)c1 [Example 33, 2-(4-(pyridin-4-yl)piperazin-1-yl)-N-(3-(quinoxalin-2-yl)phenyl)acetamide]
25 | > 10 µM |  | > 10 µM | > 10 µM | > 10 µM | CC(=O)SCC(=O)Nc1cccc(-c2cnc3ccccc3n2)c1 [Example 30, S-2-oxo-2-(3-(quinoxalin-2-yl)phenylamino)ethyl ethanethioate]
26 | > 10 µM | > 10 µM | > 10 µM | > 10 µM |  | O=C(CO)Nc1cccc(-c2cnc3ccccc3n2)c1 [Example 29, 2-hydroxy-N-(3-(quinoxalin-2-yl)phenyl)acetamide]
27 | > 10 µM |  | > 10 µM | > 10 µM |  | CC(Nc1cccc(-c2cnc3ccccc3n2)c1)=C1CCOC1=O (racemic) [Example 31, (E/Z)-3-(1-(3-(quinoxalin-2-yl)phenylamino)ethylidene)dihydrofuran-2(3H)-one]
28 | > 10 µM |  | > 10 µM | > 10 µM | > 10 µM | O=C(CC(=O)C(F)(F)F)Nc1cccc(-c2cnc3ccccc3n2)c1 [Example 26, 4,4,4-trifluoro-3-oxo-N-(3-(quinoxalin-2-yl)phenyl)butanamide]
29 | > 10 µM | > 10 µM | > 10 µM | > 10 µM |  | O=C(CN1CCC(O)CC1)Nc1cccc(-c2cnc3ccccc3n2)c1 [Example 34, 2-(4-hydroxypiperidin-1-yl)-N-(3-(quinoxalin-2-yl)phenyl)acetamide]
30 | > 10 µM |  | > 10 µM | > 10 µM | > 10 µM | C=CCC(=O)Nc1cccc(-c2cnc3ccccc3n2)c1 [Example 23, N-(3-(quinoxalin-2-yl)phenyl)but-3-enamide]
31 | 0.0006 µM |  | > 10 µM | > 10 µM | > 10 µM | CS(=O)(=O)OCC(=O)Nc1cccc(-c2cnc3ccccc3n2)c1 [Example 27, 2-oxo-2-(3-(quinoxalin-2-yl)phenylamino)ethyl methanesulfonate]

Source: patent US8592415B2, “Selective kinase inhibitors” (Reaction Biology Corp., priority 2009, dated 2013)
